Measurements reported in article PMC8087159 (Bioconjugate chemistry, 2021).
“Also recorded” adds a separate entry of the source. Where two headings read alike, the source gives them in different places.

Assays:
[1] = 3.5 μmol per mouse oral gavage; for original drug in the eye / liver accumulation of N-retinylamides: 2 and 16 h; for N-retinylamides in the eye: 16 h
[2] = cited from earlier work
[3] = tested on: Caco-2 cell monolayer; experiment: Caco-2 cell monolayer transport; format: in vitro ADME, human; settings: 500 μM in PBS pH 6 on apical side, 37 °C, within 24 h; compared with Ret-NH2
[4] = tested on: ARPE19 cells; experiment: ARPE19 cell uptake; format: in vitro ADME, human; settings: 10 μM, 16 h; compared with Ret-NH2
[5] = target: RPE65 (Bos taurus, UniProt Q28175); experiment: RPE microsome retinoid isomerase assay; format: biochemical, Bovine; settings: RPE microsomes, 0.5–10 μM compound, 10 μM all-trans-retinol, 1 h
[6] = Storage stability; format: physicochemical
[7] = target: T1, RPE65 (Homo sapiens, UniProt Q16518); format: cell-based; settings: NIH3T3 cells, 4.5 μM drug, 10 μM all-trans-retinol, 16 h
T1 sequence (Q16518 1-533): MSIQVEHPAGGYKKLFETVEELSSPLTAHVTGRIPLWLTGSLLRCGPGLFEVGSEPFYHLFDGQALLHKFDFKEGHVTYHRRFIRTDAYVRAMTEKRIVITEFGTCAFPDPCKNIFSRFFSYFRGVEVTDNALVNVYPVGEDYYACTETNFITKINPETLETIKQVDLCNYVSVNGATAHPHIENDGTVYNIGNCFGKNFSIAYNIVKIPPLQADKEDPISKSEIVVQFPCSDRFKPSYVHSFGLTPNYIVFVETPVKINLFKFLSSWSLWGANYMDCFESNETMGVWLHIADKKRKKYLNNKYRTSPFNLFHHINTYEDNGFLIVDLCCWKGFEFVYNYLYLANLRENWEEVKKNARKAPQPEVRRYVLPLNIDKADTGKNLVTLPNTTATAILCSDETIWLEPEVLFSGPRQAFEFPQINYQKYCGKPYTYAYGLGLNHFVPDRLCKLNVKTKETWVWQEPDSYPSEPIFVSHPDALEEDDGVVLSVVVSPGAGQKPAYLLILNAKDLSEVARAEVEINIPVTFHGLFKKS

[8] = target: T2, RPE65 (Mus musculus, UniProt Q91ZQ5); experiment: In vivo RPE65 inhibition; settings: 1.75 μmol/mouse oral gavage 16 h before bleach 10 min at 7000 lx; 24 h in the dark
T2 sequence (Q91ZQ5 2-533): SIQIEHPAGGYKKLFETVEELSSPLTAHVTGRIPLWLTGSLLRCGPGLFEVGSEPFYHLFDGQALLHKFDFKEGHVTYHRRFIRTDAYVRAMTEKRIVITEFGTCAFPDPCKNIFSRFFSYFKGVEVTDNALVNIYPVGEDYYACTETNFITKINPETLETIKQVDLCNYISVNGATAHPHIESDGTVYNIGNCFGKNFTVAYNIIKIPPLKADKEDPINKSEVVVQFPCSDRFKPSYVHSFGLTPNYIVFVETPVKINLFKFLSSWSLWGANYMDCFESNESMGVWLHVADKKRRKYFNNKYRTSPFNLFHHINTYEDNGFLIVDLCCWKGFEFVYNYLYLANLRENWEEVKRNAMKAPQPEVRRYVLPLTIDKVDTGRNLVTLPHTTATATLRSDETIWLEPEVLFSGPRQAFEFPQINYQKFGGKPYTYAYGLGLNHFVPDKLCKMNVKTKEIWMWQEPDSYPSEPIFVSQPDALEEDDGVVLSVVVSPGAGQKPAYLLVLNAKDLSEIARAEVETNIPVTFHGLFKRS

[9] = tested on: light-induced retinal degeneration in Abca4^−/−Rdh8^−/− mice; experiment: ERG scotopic a-waves after light-induced retinal degeneration; settings: 1.9 μmol/mouse gastric gavage 16 h prior to light illumination; measured 7 days after drug administration and illumination
[10] = mouse, in vivo, po
[11] = tested on: light-induced retinal degeneration in Abca4^−/−Rdh8^−/− mice; experiment: Retinal histology; format: in vivo; settings: drug before intense light exposure; 7 days after light exposure
[12] = tested on: retinal function of C57BL/6J WT mice; experiment: ERG scotopic a-waves in wild-type mice after drug treatment; format: in vivo; settings: 1.75 μmol per mouse gastric gavage 16 h prior to ERG

Chain of RPE65 (Bos taurus, UniProt Q28175) (Q28175 whole entry): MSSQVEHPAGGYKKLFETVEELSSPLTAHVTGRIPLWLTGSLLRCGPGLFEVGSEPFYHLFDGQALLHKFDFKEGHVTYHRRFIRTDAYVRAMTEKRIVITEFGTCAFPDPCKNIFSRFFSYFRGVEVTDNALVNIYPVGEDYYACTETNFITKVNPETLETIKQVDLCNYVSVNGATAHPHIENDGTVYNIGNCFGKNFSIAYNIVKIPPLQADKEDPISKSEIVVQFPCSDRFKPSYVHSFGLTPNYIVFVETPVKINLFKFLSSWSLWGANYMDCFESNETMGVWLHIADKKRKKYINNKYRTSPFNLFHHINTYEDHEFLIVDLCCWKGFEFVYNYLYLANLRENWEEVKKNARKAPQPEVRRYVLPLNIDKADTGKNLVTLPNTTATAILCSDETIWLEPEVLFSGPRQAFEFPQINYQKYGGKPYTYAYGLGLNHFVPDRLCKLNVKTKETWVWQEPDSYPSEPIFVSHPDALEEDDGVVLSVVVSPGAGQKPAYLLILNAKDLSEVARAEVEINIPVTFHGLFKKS

CC1=C(/C=C/C(C)=C/C=C/C(C)=C/CNC(=O)[C@@H](N)CC(C)C)C(C)(C)CCC1 [RL]
original drug in the eye [1]: detected only at 2 h
N-retinylamides in the eye [1]: comparable to that of Ret-NH2

COc1ccc(OC)c(C(O)CN)c1 (stereo not drawn) [desglymidodrine]
oral bioavailability ([2]; desglymidodrine to midodrine): 50%

Nc1nc2c(ncn2COCCO)c(=O)[nH]1 [acyclovir]
oral bioavailability (Fo) ([2]; in vivo, po): ~ 16%

CC1=C(/C=C/C(C)=C/C=C/C(C)=C/CNC(=O)[C@@H](N)Cc2ccccc2)C(C)(C)CCC1 [RF]
transport through the Caco-2 monolayer [3]: significantly higher transport
uptake by ARPE19 cells [4]: higher uptake
inhibition of RPE65 activity (11-cis-retinol production) [5]: minor inhibitory effects
original drug in the eye [1]: detected only at 2 h
N-retinylamides in the eye [1]: comparable to that of Ret-NH2

CC1=C(/C=C/C(C)=C/C=C/C(C)=C/CN)C(C)(C)CCC1 [Ret-NH2, Retinylamine, reference compound]
decomposed on storage ([6]; desiccator under vacuum at room temperature, within 1 week): 95%
inhibition of RPE65 activity (11-cis-retinol production) [5]: concentration-dependent inhibition
11-cis-retinol production [7]: virtually ablated 11-cis-retinol production
regeneration of 11-cis-retinal in the eye [8]: much lower concentration of 11-cis-retinal than the untreated controls
original drug in the eye [1]: No Ret-NH2 was detected at 2 and 16 h in the eye
N-retinylamide concentration in liver ([1]; 2 h): much higher liver concentrations

Emixustat-L-Val-Gly amide [EVG]
ERG activities (scotopic a-waves) [9]: only slight decrease of ERG activities

CC1=C(/C=C/C(C)=C/C=C/C(C)=C/CNC(=O)[C@@H](N)C(C)C)C(C)(C)CCC1 [RV]
N-retinylamides in the eye [10]: no detectable N-retinylamides
liver accumulation of N-retinylamides [10]: lower liver accumulations of N-retinylamides than did RF and RL
original drug in the eye [10]: detected in the eyes at 2 and 16 h at relatively high concentrations

CC1=C(/C=C/C(C)=C/C=C/C(C)=C/CNC(=O)CNC(=O)[C@@H](N)C(C)C)C(C)(C)CCC1 [RVG, Ret-NH2-L-valylglycine amide]
degradation on storage ([6]; stored in a desiccator under vacuum at room temperature for 2 months): Less than 5%
retinal structure by histology (H&E) [11]: maintained an intact retinal structure
transport through the Caco-2 monolayer [3]: significantly higher transport
uptake by ARPE19 cells [4]: higher uptake
inhibition of RPE65 activity (11-cis-retinol production) [5]: did not affect significant inhibition; also recorded: no inhibitory effect
11-cis-retinol production [7]: easily detected
regeneration of 11-cis-retinal in the eye [8]: greater regeneration of 11-cis-retinal
recovery of retinal function (ERG) [12]: rapid recovery of retinal function
liver accumulation of N-retinylamides [1]: lower liver accumulations of N-retinylamides than did RF and RL
original drug in the eye [1]: detected only at 16 h
N-retinylamides in the eye [1]: no detectable N-retinylamides

CC1=C(/C=C/C(C)=C/C=C/C(C)=C/CNC(=O)CN)C(C)(C)CCC1 [RG]
liver accumulation of N-retinylamides [1]: lower liver accumulations of N-retinylamides than did RF and RL
original drug in the eye [1]: detected in the eyes at 2 and 16 h at relatively high concentrations
N-retinylamides in the eye [1]: comparable to that of Ret-NH2
